In test [1] the target is NPP (Xanthomonas axonopodis nucleotide phosphodiesterase/pyrophosphatase) (Xanthomonas citri, UniProt A0A0U5FM15). As to the kind of experiment: inhibition of MepNPP hydrolysis, absorbance of 4-nitrophenolate at […] nm. In kind it is biochemical.
Test [2] deals with alkaline phosphatase (AP) (Escherichia coli, UniProt P00634, R188S). As to the kind of experiment: steady-state hydrolysis kinetics. In kind it is biochemical.

A word on the Ki: it is the equilibrium dissociation constant of an inhibitor or competing ligand from its target. Usually kcat/KM stands for the turnover number divided by the Michaelis constant.

Chain of alkaline phosphatase (AP) (P00634 23-471 R188S): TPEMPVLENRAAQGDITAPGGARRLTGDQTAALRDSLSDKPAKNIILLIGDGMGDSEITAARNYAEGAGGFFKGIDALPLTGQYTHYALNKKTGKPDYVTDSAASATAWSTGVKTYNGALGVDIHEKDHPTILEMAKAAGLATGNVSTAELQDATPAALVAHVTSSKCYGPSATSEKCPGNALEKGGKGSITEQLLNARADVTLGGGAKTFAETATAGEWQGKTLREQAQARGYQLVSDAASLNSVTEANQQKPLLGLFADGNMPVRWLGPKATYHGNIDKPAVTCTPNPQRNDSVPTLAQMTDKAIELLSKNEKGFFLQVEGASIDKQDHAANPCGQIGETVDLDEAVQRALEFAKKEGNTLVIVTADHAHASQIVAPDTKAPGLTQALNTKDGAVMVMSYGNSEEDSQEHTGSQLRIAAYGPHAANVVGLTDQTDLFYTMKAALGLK

`Nc1ncnc2c1ncn2[C@@H]1O[C@H](COP(=O)(O)O)[C@@H](O)[C@H]1O` [AMP, adenosine monophosphate]: the inhibition constant Ki in test [1] was 318 ± 24 µM. As to `COP(O)(=S)Oc1ccc([N+](=O)[O-])cc1` (racemic) [MepNPPS, methyl p-nitrophenyl phosphorothioate], the specificity constant (kcat/KM) in test [2] turned out to be 0.0011 M⁻¹ s⁻¹.

Values taken from paper PMC2662379 (Biochemistry, 2008).
